Active and inactive are the calls of the source. No rule for the calls is given here.
System: CCRIS mutagenicity, Ames/micronucleus/aberration tests
Assay: CCRIS mutagenicity studies
[1] = Test System: AMES SALMONELLA TYPHIMURIUM, Strain/Indicator: TA98, Metabolic Activation: NONE, Method: PREINCUBATION
[2] = Test System: AMES SALMONELLA TYPHIMURIUM, Strain/Indicator: TA100, Metabolic Activation: NONE, Method: PREINCUBATION
[3] = Test System: AMES SALMONELLA TYPHIMURIUM, Strain/Indicator: TA100, Metabolic Activation: RAT, LIVER, S-9, AROCLOR 1254, Method: STANDARD PLATE

Measured: mutagenic call

Nc1ccc(Cl)cc1Cl
inactive: Test System: AMES SALMONELLA TYPHIMURIUM, Strain/Indicator: TA97, Metabolic Activation: HAMSTER, LIVER, S-9, AROCLOR 1254 (10 OR 30%), Method: PREINCUBATION inactive; negative | Test System: AMES SALMONELLA TYPHIMURIUM, Strain/Indicator: TA97, Metabolic Activation: NONE, Method: PREINCUBATION inactive; negative | Test System: AMES SALMONELLA TYPHIMURIUM, Strain/Indicator: TA97, Metabolic Activation: RAT, LIVER, S-9, AROCLOR 1254 (10 OR 30%), Method: PREINCUBATION inactive; negative | Test System: AMES SALMONELLA TYPHIMURIUM, Strain/Indicator: TA98, Metabolic Activation: HAMSTER, LIVER, S-9, AROCLOR 1254 (10%), Method: PREINCUBATION inactive; negative | Test System: AMES SALMONELLA TYPHIMURIUM, Strain/Indicator: TA98, Metabolic Activation: HAMSTER, LIVER, S-9, AROCLOR 1254 (30%), Method: PREINCUBATION inactive; negative | [1] inactive; negative | Test System: AMES SALMONELLA TYPHIMURIUM, Strain/Indicator: TA98, Metabolic Activation: RAT, LIVER, S-9, AROCLOR 1254 (5 OR 30%), Method: PREINCUBATION inactive; negative | Test System: AMES SALMONELLA TYPHIMURIUM, Strain/Indicator: TA98, Metabolic Activation: RAT, LIVER, S-9, AROCLOR 1254 (10%), Method: PREINCUBATION inactive; negative | Test System: AMES SALMONELLA TYPHIMURIUM, Strain/Indicator: TA100, Metabolic Activation: HAMSTER, LIVER, S-9, AROCLOR 1254 (5%), Method: PREINCUBATION inactive; negative | Test System: AMES SALMONELLA TYPHIMURIUM, Strain/Indicator: TA100, Metabolic Activation: HAMSTER, LIVER, S-9, AROCLOR 1254 (10%), Method: PREINCUBATION inactive; negative | Test System: AMES SALMONELLA TYPHIMURIUM, Strain/Indicator: TA100, Metabolic Activation: HAMSTER, LIVER, S-9, AROCLOR 1254 (30%), Method: PREINCUBATION inactive; negative | [2] inactive; negative | Test System: AMES SALMONELLA TYPHIMURIUM, Strain/Indicator: TA100, Metabolic Activation: RAT, LIVER, S-9, AROCLOR 1254 (10%), Method: PREINCUBATION inactive; negative | Test System: AMES SALMONELLA TYPHIMURIUM, Strain/Indicator: TA100, Metabolic Activation: RAT, LIVER, S-9, AROCLOR 1254 (30%), Method: PREINCUBATION inactive; negative | Test System: AMES SALMONELLA TYPHIMURIUM, Strain/Indicator: TA1535, Metabolic Activation: HAMSTER, LIVER, S-9, AROCLOR 1254 (10 OR 30%), Method: PREINCUBATION inactive; negative | Test System: AMES SALMONELLA TYPHIMURIUM, Strain/Indicator: TA1535, Metabolic Activation: NONE, Method: PREINCUBATION inactive; negative | Test System: AMES SALMONELLA TYPHIMURIUM, Strain/Indicator: TA1535, Metabolic Activation: RAT, LIVER, S-9, AROCLOR 1254 (10 OR 30%), Method: PREINCUBATION inactive; negative | Test System: AMES SALMONELLA TYPHIMURIUM, Strain/Indicator: TA1537, Metabolic Activation: HAMSTER, LIVER, S-9, AROCLOR 1254 (30%), Method: PREINCUBATION inactive; negative | Test System: AMES SALMONELLA TYPHIMURIUM, Strain/Indicator: TA1537, Metabolic Activation: NONE, Method: PREINCUBATION inactive; negative | Test System: AMES SALMONELLA TYPHIMURIUM, Strain/Indicator: TA1537, Metabolic Activation: RAT, LIVER, S-9, AROCLOR 1254 (30%), Method: PREINCUBATION inactive; negative

O[C@H]1[C@H]2O[C@H]2c2c(ccc3cc4ccc5ccccc5c4nc23)[C@@H]1O
active: [1] active; positive | [2] active; positive | Test System: CHINESE HAMSTER V-79, Strain/Indicator: V-79/8-AZAGUANINE, Metabolic Activation: NONE, Method: STANDARD PLATE active; positive

Cc1cc(S(=O)(=O)O)c2c(C)ccc(C(C)C)cc1-2
inactive: Test System: AMES SALMONELLA TYPHIMURIUM, Strain/Indicator: TA98, Metabolic Activation: NONE inactive; negative | Test System: AMES SALMONELLA TYPHIMURIUM, Strain/Indicator: TA98, Metabolic Activation: S-9 inactive; negative | Test System: AMES SALMONELLA TYPHIMURIUM, Strain/Indicator: TA100, Metabolic Activation: NONE inactive; negative | Test System: AMES SALMONELLA TYPHIMURIUM, Strain/Indicator: TA100, Metabolic Activation: S-9 inactive; negative | Test System: AMES SALMONELLA TYPHIMURIUM, Strain/Indicator: TA1535, Metabolic Activation: NONE inactive; negative | Test System: AMES SALMONELLA TYPHIMURIUM, Strain/Indicator: TA1535, Metabolic Activation: S-9 inactive; negative | Test System: AMES SALMONELLA TYPHIMURIUM, Strain/Indicator: TA1537, Metabolic Activation: NONE inactive; negative | Test System: AMES SALMONELLA TYPHIMURIUM, Strain/Indicator: TA1537, Metabolic Activation: S-9 inactive; negative | Test System: E. COLI, Strain/Indicator: WP2 UVRA, Metabolic Activation: NONE inactive; negative | Test System: E. COLI, Strain/Indicator: WP2 UVRA, Metabolic Activation: S-9 inactive; negative

Cc1c2ccc(CO)cc2nc2c1ccc1ccccc12
active: [3] active; positive

c1ccc2c(c1)-c1c(c3ccccc3c3ccccc13)C1NC21 (stereo not given)
active: Test System: AMES SALMONELLA TYPHIMURIUM, Strain/Indicator: TA98, Metabolic Activation: NONE, Method: PREINCUBATION (KCL-CONTAINING MEDIUM) active; positive | Test System: AMES SALMONELLA TYPHIMURIUM, Strain/Indicator: TA98, Metabolic Activation: NONE, Method: PREINCUBATION (KCL-FREE MEDIUM) active; positive | Test System: AMES SALMONELLA TYPHIMURIUM, Strain/Indicator: TA100, Metabolic Activation: NONE, Method: PREINCUBATION (KCL-CONTAINING OR KCL-FREE MEDIA) active; positive

CC(C)CCC[C@@H](C)[C@H]1CC[C@H]2[C@@H]3C[C@@H](O)[C@@]4(O)C[C@@H](O)CC[C@]4(C)[C@H]3CC[C@]12C
inactive: Test System: AMES SALMONELLA TYPHIMURIUM, Strain/Indicator: TA97, Metabolic Activation: RAT, LIVER, S-9, AROCLOR 1254, Method: STANDARD PLATE inactive; negative | Test System: AMES SALMONELLA TYPHIMURIUM, Strain/Indicator: TA98, Metabolic Activation: RAT, LIVER, S-9, AROCLOR 1254, Method: STANDARD PLATE inactive; negative | [3] inactive; negative | Test System: AMES SALMONELLA TYPHIMURIUM, Strain/Indicator: TA102, Metabolic Activation: RAT, LIVER, S-9, AROCLOR 1254, Method: STANDARD PLATE inactive; negative | Test System: CHINESE HAMSTER V-79, Strain/Indicator: V-79/OUABAIN, Metabolic Activation: NONE inactive; negative
active: Test System: AMES SALMONELLA TYPHIMURIUM, Strain/Indicator: TA97, Metabolic Activation: NONE, Method: STANDARD PLATE active; positive | Test System: AMES SALMONELLA TYPHIMURIUM, Strain/Indicator: TA98, Metabolic Activation: NONE, Method: STANDARD PLATE active; positive | Test System: AMES SALMONELLA TYPHIMURIUM, Strain/Indicator: TA100, Metabolic Activation: NONE, Method: STANDARD PLATE active; positive | Test System: AMES SALMONELLA TYPHIMURIUM, Strain/Indicator: TA102, Metabolic Activation: NONE, Method: STANDARD PLATE active; positive | Test System: AMES SALMONELLA TYPHIMURIUM, Strain/Indicator: TA1535, Metabolic Activation: NONE, Method: STANDARD PLATE active; positive | Test System: AMES SALMONELLA TYPHIMURIUM, Strain/Indicator: TA1535, Metabolic Activation: RAT, LIVER, S-9, AROCLOR 1254, Method: STANDARD PLATE active; positive | Test System: CHINESE HAMSTER V-79, Strain/Indicator: V-79/8-AZAGUANINE, Metabolic Activation: NONE active; positive | Test System: IN VITRO CHROMOSOMAL ABERRATIONS, Strain/Indicator: CHINESE HAMSTER OVARY EPITHELIAL (CHO-K1) CELLS, Metabolic Activation: NONE active; positive (structural changes) | Test System: IN VITRO CHROMOSOMAL ABERRATIONS, Strain/Indicator: CHINESE HAMSTER OVARY EPITHELIAL (CHO-K1) CELLS, Metabolic Activation: RAT, LIVER, S-9, AROCLOR 1254 active; positive (structural changes); lower response in presence of s-9

O=C(/C=C/c1ccccc1O)c1ccc(O)cc1O
inactive: Test System: Ames Salmonella typhimurium, Strain/Indicator: TA102, Metabolic Activation: None, Method: Preincubation inactive; negative | Test System: Ames Salmonella typhimurium, Strain/Indicator: TA102, Metabolic Activation: Rat, Liver, S-9, Aroclor 1254 in 0.154 M KCl, Method: Preincubation inactive; negative

COc1ccc2nc3occc3c(OC)c2c1
active: Test System: AMES SALMONELLA TYPHIMURIUM, Strain/Indicator: TA98, Metabolic Activation: RAT, LIVER, S-9, PHENOBARBITAL, Method: STANDARD PLATE active; positive | Test System: AMES SALMONELLA TYPHIMURIUM, Strain/Indicator: TA100, Metabolic Activation: RAT, LIVER, S-9, PHENOBARBITAL, Method: STANDARD PLATE active; positive
